Laboratory results as given in patent US8084479B2, “Thiazole compounds and methods of use” (Amgen Inc., priority 2006, dated 2011).

Molecular target: PKBα (Homo sapiens, UniProt P31749)
Test: PKB kinase assay (P33-labeled ATP, peptide substrate, filter plate)
Format: biochemical
Settings: PKBα enzyme (full length or kinase domain with pleckstrin domain deleted)
Description: The kinase assay for evaluating PKB activity comprises active PKB enzymes, a PKB specific substrate, and P^33-labeled ATP. […] The phosphorylated substrate was captured by a phosphocellulose membrane filter plate (MLLIPORE) and measured by a Wallac Microbeta liquid scintillation counter (Perkin Elmer).

Sequence of PKBα (P31749 118-480 limits assumed): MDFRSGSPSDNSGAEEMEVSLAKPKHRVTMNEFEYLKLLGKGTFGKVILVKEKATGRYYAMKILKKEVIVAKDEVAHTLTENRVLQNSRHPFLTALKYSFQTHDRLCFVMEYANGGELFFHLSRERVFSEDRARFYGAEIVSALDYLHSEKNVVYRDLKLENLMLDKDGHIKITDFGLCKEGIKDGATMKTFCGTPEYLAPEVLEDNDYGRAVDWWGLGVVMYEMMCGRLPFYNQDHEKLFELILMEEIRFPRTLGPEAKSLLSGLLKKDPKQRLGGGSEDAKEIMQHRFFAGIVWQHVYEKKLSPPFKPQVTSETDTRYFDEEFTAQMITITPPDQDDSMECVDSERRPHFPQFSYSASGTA

Row | IC50 [nM] | SMILES
1 | 1000 to 10000 | C[C@H](Nc1ncc(-c2ccc3[nH]c(=O)oc3c2)s1)[C@@H](N)Cc1ccc(C(F)(F)F)cc1 [Example 236, 6-(2-((2S,3S)-3-amino-4-(4-(trifluoromethyl)phenyl)butan-2-ylamino)thiazol-5-yl)benzo[d]oxazol-2(3H)-one]
2 | 1000 to 10000 | N[C@H](CNc1nc(C(=O)N2CCCC2)c(-c2ccc3cnccc3c2)s1)Cc1ccc(C(F)(F)F)cc1 [Example 195, (2-((S)-2-amino-3-(4-(trifluoromethyl)phenyl)propylamino)-5-(isoquinolin-6-yl)thiazol-4-yl)(pyrrolidin-1-yl)methanone]
3 | < 50 | N[C@H](CNc1ncc(-c2ccc3c(c2)CC(=O)N3)s1)Cc1ccc(Cl)c(F)c1 [Example 86, 5-(2-((S)-2-Amino-3-(4-chloro-3-fluorophenyl)propylamino)thiazol-5-yl)indolin-2-one]
4 | 50 to 1000 | NC(CNc1ncc(-c2ccc3c(c2)CC(=O)N3)s1)Cc1ccc(C(F)(F)F)cc1F (centres unmarked) [Example 176, 5-(2-(-2-amino-3-(2-fluoro-4-(trifluoromethyl)phenyl)propylamino)thiazol-5-yl)indolin-2-one]
5 | 1000 to 10000 | N[C@H](CNc1ncc(-c2ccc3c(c2)OCO3)s1)Cc1c[nH]c2ccccc12 [Example 251, N—((S)-2-amino-3-(1H-indol-3-yl)propyl)-5-(benzo[d][1,3]dioxol-5-yl)thiazol-2-amine]
6 | 1000 to 10000 | N[C@H](CNc1ncc(-c2ccc3c(c2)CC(=O)N3)s1)Cc1ccc(OCCCCl)cc1 [Example 94, 5-(2-((S)-2-Amino-3-(4-(3-chloropropoxy)phenyl)propylamino)thiazol-5-yl)indolin-2-one]
7 | 1000 to 10000 | COCc1nc(N(C[C@@H](N)Cc2ccc(C(F)(F)F)cc2)C(C)=O)sc1-c1nc2ccncc2s1 [Example 26, N—((S)-2-amino-3-(4-(trifluoromethyl)phenyl)propyl)-N-(4-(methoxymethyl)-5-(thiazolo[5,4-c]pyridin-2-yl)thiazol-2-yl)acetamide]
8 | 1000 to 10000 | N[C@H](CNc1nc(C(F)(F)CO)c(-c2ccc3c(c2)CC(=O)N3)s1)Cc1ccc(C(F)(F)F)cc1 [Example 133, 5-(2-((S)-2-Amino-3-(4-(trifluoromethyl)phenyl)propylamino)-4-(1,1-difluoro-2-hydroxyethyl)thiazol-5-yl)indolin-2-one]
9 | 50 to 1000 | C[C@@H](c1ccc(C(F)(F)F)cc1)[C@H](N)CNc1ncc(-c2cc(F)c3c(c2)CC(=O)N3)s1 [Example 222, 5-(2-((2S,3S)-2-amino-3-(4-(trifluoromethyl)phenyl)butylamino)thiazol-5-yl)-7-fluoroindolin-2-one]
10 | 1000 to 10000 | Cn1c(=O)[nH]c2ccc(-c3sc(NC[C@@H](N)Cc4ccc(F)cc4)nc3-c3ccccc3F)cc21 [Example 250, 6-(2-((S)-2-amino-3-(4-fluorophenyl)propylamino)-4-(2-fluorophenyl)thiazol-5-yl)-1-methyl-1H-benzo[d]imidazol-2(3H)-one]
11 | 50 to 1000 | N[C@H](CNc1ncc(-c2ccc3c(c2)CC(=O)N3)s1)Cc1ccc(F)c(F)c1 [Example 126, 5-(2-((S)-2-Amino-3-(3,4-difluorophenyl)propylamino)thiazol-5-yl)indolin-2-one]
12 | < 50 | N[C@H](CNc1ncc(-c2cnc3c(c2)CC(=O)N3)s1)Cc1ccc(C(F)(F)F)cc1 [Example 226, 5-(2-((S)-2-amino-3-(4-(trifluoromethyl)phenyl)propylamino)thiazol-5-yl)-1H-pyrrolo[2,3-b]pyridin-2(3H)-one]
13 | 50 to 1000 | CCc1nc(NC[C@@H](N)Cc2ccc(C(F)(F)F)cc2)sc1-c1nc2ccncc2s1 [Example 23, N—((S)-2-amino-3-(4-(trifluoromethyl)phenyl)propyl)-4-ethyl-5-(thiazolo[5,4-c]pyridin-2-yl)thiazol-2-amine]
14 | < 50 | N[C@H](CNc1ncc(-c2cc3ccncc3s2)s1)Cc1ccc(C(F)(F)F)cc1 [Example 108, N—((S)-2-amino-3-(4-(trifluoromethyl)phenyl)propyl)-5-(thieno[2,3-c]pyridin-2-yl)thiazol-2-amine]
